US20260167632A1, “NICOTINAMIDE DERIVATIVES FOR USE IN TREATING DISORDERS ASSOCIATED WITH KCNK13 ACTIVITY” (Cerevance, Inc., priority 2022, published 2026)

Target: T1, human KCNK13 (Homo sapiens, UniProt Q9HB14)
T1 construct: expressed in transfected cells
T1 sequence (Q9HB14 1-408): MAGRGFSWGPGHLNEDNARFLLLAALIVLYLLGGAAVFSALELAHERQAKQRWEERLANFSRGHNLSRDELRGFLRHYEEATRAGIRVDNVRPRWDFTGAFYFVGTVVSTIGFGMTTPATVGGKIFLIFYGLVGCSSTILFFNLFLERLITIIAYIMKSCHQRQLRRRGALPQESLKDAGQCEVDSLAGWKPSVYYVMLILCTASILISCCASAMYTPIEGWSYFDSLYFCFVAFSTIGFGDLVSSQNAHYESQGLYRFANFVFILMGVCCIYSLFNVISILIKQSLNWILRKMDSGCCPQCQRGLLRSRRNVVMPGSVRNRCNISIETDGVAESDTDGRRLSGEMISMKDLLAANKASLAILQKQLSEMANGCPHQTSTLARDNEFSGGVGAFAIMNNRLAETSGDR
Assay: KCNK13 antagonist activity, thallium flux FLIPR assay in HEK 293 cells stably expressing human KCNK13
Type: cell-based
Settings: HEK 293 cells stably expressing human KCNK13, Tl+ sensitive dye, compound 15 min before thallium sulfate, ten point curves; read-out: hKCNK13 IC50
Method: 4. Biological Efficacy of Compounds of the Invention
KCNK13 antagonist activity was determined by measuring changes in intracellular Thallium (Tl^+) concentrations using a Tl^+ sensitive fluorescent dye. The changes in fluorescent signal were monitored by Fluorescent Imaging Plate Reader (FLIPR™) technology available from Molecular Devices, LLC, US. KCNK13 mediated increases in intracellular Tl^+ concentration were readily detected by addition of a thallium sulfate Stimulus. 24 hours prior to the assay, human embryonic kidney 293 cells (HEK 293 cells) stably expressing human KCNK13 were seeded in cell culture medium in PDL coated black, clear-bottom 384-well plates (commercially available from Corning Inc., 356663) and grown overnight at 37° C., […]. On the day of the assay, cell culture media was removed and cells were loaded with potassium dye (commercially sold by Molecular Devices, LLC, US, R8222) for 1 hour at room temperature in the dark. Test compounds (at 10 point half log concentration response curves from 100 µM) were added to cells for 15 minutes prior to the addition of thallium sulfate to all wells. The IC50 values were determined from ten point concentration response curves. Curves were generated using the average of two wells for each data point.

Structure (SMILES) | IC50
CN(C(=O)c1cc(F)cnc1OC(F)F)C1COc2c(F)cccc21 (centres unmarked) [Example 75, 2-(difluoromethoxy)-5-fluoro-N-(7-fluoro-2,3-dihydrobenzofuran-3-yl)-N-methylnicotinamide] | ≤ 500 nM
Cc1cc(F)cc(CN(C)C(=O)c2cc(Cl)cnc2OC(F)F)c1 [Example 76, 5-chloro-2-(difluoromethoxy)-N-(3-fluoro-5-methylbenzyl)-N-methylnicotinamide] | ≤ 200 nM
CN(C(=O)c1cc(Cl)cnc1OC(F)F)C1COc2cc(F)ccc21 (centres unmarked) [Example 77, 5-chloro-2-(difluoromethoxy)-N-(6-fluoro-2,3-dihydrobenzofuran-3-yl)-N-methylnicotinamide] | ≤ 500 nM
CN(Cc1cc(F)cc(F)c1)C(=O)c1cc(Cl)cnc1OC(F)F [Example 78, 5-chloro-N-(3,5-difluorobenzyl)-2-(difluoromethoxy)-N-methylnicotinamide] | ≤ 50 nM
CN(Cc1cc(F)cc(Cl)c1)C(=O)c1cc(Cl)cnc1OC(F)F [Example 79, 5-chloro-N-(3-chloro-5-fluorobenzyl)-2-(difluoromethoxy)-N-methylnicotinamide] | ≤ 200 nM
Cc1cccc(CN(C)C(=O)c2cc(Cl)cnc2OC(F)F)c1 [Example 80, 5-chloro-2-(difluoromethoxy)-N-methyl-N-(3-methylbenzyl)nicotinamide] | ≤ 100 nM
COc1cccc(CN(C)C(=O)c2cc(Cl)cnc2OC(F)F)c1 [Example 81, 5-chloro-2-(difluoromethoxy)-N-(3-methoxybenzyl)-N-methylnicotinamide] | ≤ 200 nM
CN(Cc1cccc(C(F)(F)F)c1)C(=O)c1cc(Cl)cnc1OC(F)F [Example 82, 5-chloro-2-(difluoromethoxy)-N-methyl-N-(3-(trifluoromethyl)benzyl)nicotinamide] | ≤ 500 nM
CC(c1cccc(F)c1)N(C)C(=O)c1cc(F)cnc1OC(F)F (centres unmarked) [Example 83, 2-(difluoromethoxy)-5-fluoro-N-(1-(3-fluorophenyl)ethyl)-N-methylnicotinamide] | ≤ 100 nM
CN(Cc1cccc(Cl)c1)C(=O)c1cc(Cl)cnc1OC(F)F [Example 84, 5-chloro-N-(3-chlorobenzyl)-2-(difluoromethoxy)-N-methylnicotinamide] | ≤ 100 nM
CN(C(=O)c1cc(F)cnc1OC(F)F)C1COc2ccccc21 (centres unmarked) [Example 85, 2-(difluoromethoxy)-N-(2,3-dihydrobenzofuran-3-yl)-5-fluoro-N-methylnicotinamide] | ≤ 200 nM
CN(Cc1cccc(C#N)c1)C(=O)c1cc(Cl)cnc1OC(F)F [Example 90, 5-chloro-N-(3-cyanobenzyl)-2-(difluoromethoxy)-N-methylnicotinamide] | ≤ 500 nM
CN(C(=O)c1cc(Cl)cnc1OC(F)F)C1COc2ccccc21 (centres unmarked) [Example 91, 5-chloro-2-(difluoromethoxy)-N-(2,3-dihydrobenzofuran-3-yl)-N-methylnicotinamide] | ≤ 500 nM
CN(C(=O)c1cc(Cl)cnc1OC(F)F)C1COc2c(F)cccc21 (centres unmarked) [Example 92, 5-chloro-2-(difluoromethoxy)-N-(7-fluoro-2,3-dihydrobenzofuran-3-yl)-N-methylnicotinamide] | ≤ 500 nM
CN(Cc1cccc(F)c1F)C(=O)c1cc(F)cnc1OC(F)F [Example 93, N-(2,3-difluorobenzyl)-2-(difluoromethoxy)-5-fluoro-N-methylnicotinamide] | ≤ 100 nM
CN(Cc1ccc(F)cc1F)C(=O)c1cc(F)cnc1OC(F)F [Example 94, N-(2,4-difluorobenzyl)-2-(difluoromethoxy)-5-fluoro-N-methylnicotinamide] | ≤ 100 nM

Structure (SMILES) | IC50
CN(Cc1cccc(F)c1)C(=O)c1cc(F)cnc1OC(F)F [Example 95, 2-(difluoromethoxy)-5-fluoro-N-(3-fluorobenzyl)-N-methylnicotinamide] | ≤ 100 nM
CN(Cc1cccc(F)c1)C(=O)c1cc(C(F)(F)F)cnc1OC(F)F [Example 96, 2-(difluoromethoxy)-N-(3-fluorobenzyl)-N-methyl-5-(trifluoromethyl)nicotinamide] | ≤ 500 nM
CN(Cc1cccc(F)c1)C(=O)c1cc(C2CCC2)cnc1OC(F)F [Example 97, 5-cyclobutyl-2-(difluoromethoxy)-N-(3-fluorobenzyl)-N-methylnicotinamide] | ≤ 1000 nM
CN(Cc1cccc(OC(F)F)c1)C(=O)c1cc(Cl)cnc1OC(F)F [Example 98, 5-chloro-2-(difluoromethoxy)-N-(3-(difluoromethoxy)benzyl)-N-methylnicotinamide] | ≤ 200 nM
CN(Cc1cccc(OC(F)(F)F)c1)C(=O)c1cc(Cl)cnc1OC(F)F [Example 99, 5-chloro-2-(difluoromethoxy)-N-methyl-N-(3-(trifluoromethoxy)benzyl)nicotinamide] | ≤ 1000 nM
CN(Cc1ccc(F)cc1F)C(=O)c1cc(Cl)cnc1OC(F)F [Example 100, 5-chloro-N-(2,4-difluorobenzyl)-2-(difluoromethoxy)-N-methylnicotinamide] | ≤ 100 nM
CN(Cc1cccc(F)c1)C(=O)c1cc(Cl)cnc1OC(F)F [Example 101, 5-chloro-2-(difluoromethoxy)-N-(3-fluorobenzyl)-N-methylnicotinamide] | ≤ 100 nM
CN(Cc1cccc(F)c1F)C(=O)c1cc(Cl)cnc1OC(F)F [Example 102, 5-chloro-N-(2,3-difluorobenzyl)-2-(difluoromethoxy)-N-methylnicotinamide] | ≤ 100 nM
CN(Cc1cc(F)cc(F)c1)S(=O)(=O)c1cc(F)cnc1OC(F)F [Example 103, N-(3,5-difluorobenzyl)-2-(difluoromethoxy)-5-fluoro-N-methylpyridine-3-sulfonamide] | ≤ 200 nM
C[C@H](c1cccc(F)c1)N(C)S(=O)(=O)c1cc(F)cnc1OC(F)F [Example 104, (R)-2-(difluoromethoxy)-5-fluoro-N-(i-(3-fluorophenyl)ethyl)-N-methylpyridine-3-sulfonamide] | ≤ 1000 nM
C[C@@H](c1cccc(F)c1)N(C)S(=O)(=O)c1cc(F)cnc1OC(F)F [Example 105, (S)-2-(difluoromethoxy)-5-fluoro-N-(1-(3-fluorophenyl)ethyl)-N-methylpyridine-3-sulfonamide] | ≤ 1000 nM
CN(Cc1cccc(C#N)c1)S(=O)(=O)c1cc(F)cnc1OC(F)F [Example 106, N-(3-cyanobenzyl)-2-(difluoromethoxy)-5-fluoro-N-methylpyridine-3-sulfonamide] | ≤ 500 nM
CN(Cc1cccc(F)c1F)S(=O)(=O)c1cc(F)cnc1OC(F)F [Example 107, N-(2,3-difluorobenzyl)-2-(difluoromethoxy)-5-fluoro-N-methylpyridine-3-sulfonamide] | ≤ 100 nM
CN(Cc1cccc(Cl)c1)S(=O)(=O)c1cc(F)cnc1OC(F)F [Example 108, N-(3-chlorobenzyl)-2-(difluoromethoxy)-5-fluoro-N-methylpyridine-3-sulfonamide] | ≤ 200 nM
CCN(Cc1cccc(F)c1)S(=O)(=O)c1cc(F)cnc1OC(F)F [Example 109, 2-(difluoromethoxy)-N-ethyl-5-fluoro-N-(3-fluorobenzyl)pyridine-3-sulfonamide] | ≤ 1000 nM
O=S(=O)(c1cc(F)cnc1OC(F)F)N1CCc2ccccc2C1 [Example 110, 2-((2-(difluoromethoxy)-5-fluoropyridin-3-yl)sulfonyl)-1,2,3,4-tetrahydroisoquinoline] | ≤ 100 nM
